# Source: patent publication US10774068B2, “Composition and methods for inhibiting mammalian sterile 20-like kinase 1” (The Scripps Research Institute, priority 2015, dated 2020)
# Read-outs that look alike come from different tables or passages of the source.
# Experiments:
# [1] = target: T1, MST1 (Homo sapiens (Human), UniProt Q13043); assay: MST1 biochemical LanthaScreen Eu Kinase Binding Assay
# Description: (§1) MST1 and MST2 biochemical LanthaScreen Eu Kinase Binding Assay was based on the binding and displacement of kinase tracer to the kinase of interest. Compounds in 1000×DMSO stock solution was dispensed using automated dispensing system (Labcyte) to 384 well Corning Microplate at 15 nL, 5 uL of Kinase buffer A was added to each well. Plates were shaken and incubated for 1 min to ensure well dissolution of compounds.
# [2] = target: MST2 (Homo sapiens (Human), UniProt Q13188); assay: MST2 biochemical LanthaScreen Eu Kinase Binding Assay
# Chain of MST2 (Q13188 whole entry): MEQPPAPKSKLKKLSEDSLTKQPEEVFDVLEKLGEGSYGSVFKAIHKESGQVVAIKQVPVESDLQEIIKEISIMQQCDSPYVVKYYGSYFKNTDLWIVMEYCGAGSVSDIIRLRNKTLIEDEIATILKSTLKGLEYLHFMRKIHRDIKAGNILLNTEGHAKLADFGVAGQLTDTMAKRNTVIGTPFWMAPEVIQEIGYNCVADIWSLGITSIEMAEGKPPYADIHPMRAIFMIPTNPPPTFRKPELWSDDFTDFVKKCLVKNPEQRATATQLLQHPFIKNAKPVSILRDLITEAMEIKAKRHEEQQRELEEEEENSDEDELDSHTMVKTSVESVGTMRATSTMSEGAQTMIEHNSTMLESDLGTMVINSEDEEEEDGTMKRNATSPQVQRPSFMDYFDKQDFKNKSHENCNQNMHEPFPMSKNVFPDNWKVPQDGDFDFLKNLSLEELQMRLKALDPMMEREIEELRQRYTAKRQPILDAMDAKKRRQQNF
# Description: as §1
# [3] = system: human islets; assay: Cytokine (IL-1β and IFN-γ) induced apoptotic activity in human islets; format: cell-based; settings: FIG. 9
# [4] = system: Beta cell; assay: Beta cell apoptosis with increasing concentrations of neratinib (FIG. 3); format: cell-based
# [5] = system: T1D model mice; assay: T1D model mice treated with streptozotocin (STZ); format: in vivo
# [6] = target: T1, MST1; assay: MST1 kinase activity; format: biochemical
# [7] = system: human islets; assay: High glucose/palmitate induced apoptotic activity in human islets; design: MST1 phosphorylation (pMST1): dose or concentration left out as unconfirmed; settings: HG/Pal, FIG. 8
# Description: Freshly isolated human islets from a single donor were exposed to high glucose and palmitate (HG/Pal) to induce apoptosis.
# T1 sequence (Q13043 whole entry): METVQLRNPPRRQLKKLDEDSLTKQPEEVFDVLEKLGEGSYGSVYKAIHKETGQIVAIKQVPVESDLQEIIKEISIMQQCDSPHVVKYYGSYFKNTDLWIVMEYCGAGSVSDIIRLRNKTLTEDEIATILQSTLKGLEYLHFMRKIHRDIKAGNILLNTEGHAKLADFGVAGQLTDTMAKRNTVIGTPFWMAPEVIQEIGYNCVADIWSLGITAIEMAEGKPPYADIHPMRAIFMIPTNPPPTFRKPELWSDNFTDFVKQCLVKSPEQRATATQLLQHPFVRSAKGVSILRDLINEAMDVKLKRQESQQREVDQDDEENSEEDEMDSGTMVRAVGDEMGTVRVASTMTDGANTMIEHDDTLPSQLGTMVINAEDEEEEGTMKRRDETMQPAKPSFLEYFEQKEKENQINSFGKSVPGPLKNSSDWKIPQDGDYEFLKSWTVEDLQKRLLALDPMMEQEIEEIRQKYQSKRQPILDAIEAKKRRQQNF
smiles,measurement,setting,value
"CCOc1cc2ncc(C#N)c(Nc3ccc(OCc4ccccn4)c(Cl)c3)c2cc1NC [Example 140, 4-(3-chloro-4-(pyridin-2-ylmethoxy)phenylamino)-7-ethoxy-6-(methylamino)quinoline-3-carbonitrile]",IC50,[1],0.1 to 1 µM
same,IC50,[2],1 to 10 µM
"Cc1cccnc1COc1ccc(Nc2c(C#N)cnc3ccc(NC(=O)CCCN(C)C)cc23)c(Cl)c1 [Example 144, N-(4-(2-chloro-4-((3-methylpyridin-2-yl)methoxy)phenylamino)-3-cyanoquinolin-6-yl)-4-(dimethylamino)butanamide]",IC50,[1],0.1 to 1 µM
same,IC50,[2],0.1 to 1 µM
"CCOc1cc2ncc(C=O)c(Nc3ccc(OCc4ncccc4C)cc3Cl)c2cc1NC(=O)CCCN(C)C [Example 145, N-(4-(2-chloro-4-((3-methylpyridin-2-yl)methoxy)phenylamino)-7-ethoxy-3-formylquinolin-6-yl)-4-(dimethylamino)butanamide]",IC50,[1],1 to 10 µM
same,IC50,[2],1 to 10 µM
"Cc1cccnc1COc1ccc(Nc2ccnc3ccc(NC(=O)CCCN(C)C)cc23)c(Cl)c1 [Example 147, N-(4-(2-chloro-4-((3-methylpyridin-2-yl)methoxy)phenylamino)quinolin-6-yl)-4-(dimethylamino)butanamide]",IC50,[1]; read-out: Kinase Binding assay-MST1 IC50,1 to 10 µM
same,IC50,[2],1 to 10 µM
CCOc1cc2ncc(C#N)c(Nc3ccc(OCc4ccccn4)c(Cl)c3)c2cc1NC(=O)/C=C/CN(C)C [neratinib],Caspase 3 cleavage,[3]; 10 μM neratinib,inhibited
same,MST1 phosphorylation,[3]; 10 μM neratinib,inhibited
same,Caspase 3 cleavage,[3]; 25 μM neratinib,inhibited
same,MST1 phosphorylation,[3]; 25 μM neratinib,inhibited
same,Beta cell apoptosis,[4],decrease
same,hyperglycemia,"[5]; T1D model mice treated with STZ, FIG. 4",attenuated
same,responses to acute glucose challenge,"[5]; T1D model mice, FIG. 5",improved
same,blood glucose,"[5]; T1D model mice, FIG. 6",reduced
same,serum insulin,"[5]; T1D model mice, FIG. 7",increased
same,MST1 kinase activity,[6],inhibitor
same,induction of cleaved caspase 3 (Cl Casp3),[7]; 25 M neratinib (so in the source),inhibited
same,MST1 phosphorylation (pMST1),[7],inhibited
